Columns and labels:
α1 = experiment: Receptor binding, [3H]prazosin, human cerebral cortex membranes (HCC); details: 22° C., 30 min
Protocol: Tissue preparation: Membrane suspensions were prepared from human cerebral cortex ([…], for α1 receptors) obtained from the UCI Organ and Tissue Bank. Briefly, tissues (1 g) were homogenized in 25 mL of ice-cold 5 mM Tris, pH 7.4 with a Polytron homogenizer for 30 sec at setting #7, and centrifuged for
10-12 minutes at 300× g at 4° C. The supernatant was filtered through 2 layers of gauze and diluted 1:2 with 50 mM Tris-HCl buffer, pH 7.4, then centrifuged at 49,000× g for 20 minutes. The pellet fraction was washed 3 times (resuspended in Tris-HCl buffer and centrifuged for 20 minutes; at 49,000× g). The pellet was then stored at -80° C. until the binding assay.
(§1) Binding Studies: The radioligands [^3 H]rauwolscine (specific activity 80 Ci/mmol) and [^3 H]prazosin (specific activity 76 Ci/mmol) were obtained from New England Nuclear, Boston, Mass. Frozen membrane pellet was resuspended in 25 mM glycine/glycine, pH 7.5 and incubated with radioligand under the following conditions: CHO-C10, CHO-RNG, CHO-C4-[^3 H]rauwolscine, 22° C., 30 minutes; RKC-[^3 H]rauwolscine, 0° C., 120 minutes; and, HCC-[^3 H]prazosin, 22° C., 30 minutes in a final volume of 500 ul. At the end of the incubation period, the samples were filtered through glass filters (Whatman GF/B) in a 96 well cell harvester and rapidly washed four times with 4 mL of iced-cold 50 mM Tris-HCl buffer. The filters were then oven dried and transferred to scintillation vials containing 10 mL of Beckman's Ready Protein® scintillation cocktail for counting. […] Protein concentrations were determined with a protein assay kit from Bio Rad. Binding isotherms, equilibrium dissociation and affinity constants were analyzed and determined by the non-linear least squares curve fitting programs EBDA (BioSoft) or AccuFit Competition/Saturation by Beckman.
(§2) The radioligands [^3 H] rauwolscine (specific activity 80 Ci/mmol) and [^3 H] prazosin (specific activity 76 Ci/mmol) were obtained from New England Nuclear, Boston, Mass. Frozen membrane pellet was resuspended in 25 mM glycine/glycine, pH 7.4 and incubated with radioligand under the following conditions: CHO-C10, CHO-RNG, CHO-C4-[^3 H]rauwolscine, 22° C., 30 min.; and, HCC-[^3 H]prazowsin, 22° C., 30 minutes in a final volume of 500 ul. At the end of the incubation period, the samples were filtered through glass fiber filters (Whatman GF/B) in a 96 well cell harvester and rapidly washed four times which 4 mL of iced-cold 50 mM Tris-CHI buffer. The filters were then oven dried and transferred to scintillation vials containing 5 mL of Beckman's Ready Protein® scintillation cocktail for counting. […] Protein concentrations were determined with a protein assay kit from Bio lad. Binding isotherms, equilibrium dissociation and affinity constants were analyzed and determined by the non-linear least squares curve fitting programs AccuFit Competition/Saturation by Beckman.
(§3) Representative compounds of the present invention were tested according to the procedures given above. […] The receptor binding studies and K1 are measures of the affinity of a compound for a particular receptor.

I2B = experiment: Receptor binding, I2B
I1 imidazoline receptor = I1 imidazoline receptor binding assay, 3H-clonidine, bovine VLM membranes; details: 25° C., 50 min
Protocol: Fresh bovine brain stems were obtained from a local slaughter house. After removal of pia-arachnoid, the medulla was isolated by dissecting the brain stem about 1 cm posterior and 1 cm caudal to the obex. The ventral quadrants of the medulla excluding the pyramids were used as the VLM. For each preparation, 30 to 40 VLM were used. Initial homogenization was performed in 20 volumes of 5 mM HEPES buffer (pH 7.4 at 4° C.) containing 250 mM sucrose, 50 uM Calpain I inhibitor (Boehginer Mannheim, Indianapolis, Ind.), 100 uM 1,10-phenanthroline (Sigma, St. Louis, Mo.) and 50 uM Pefabloc (Boehginer Mannheim, Indianapolis, Ind.), using Virtis homogenizer at setting 7 with three 10 second pulses, followed by three passes in a teflon-glass tissue homogenizer. The inhibitors were added to prevent degradation by proteases and peptidases. The homogenates were then centrifuged at 1000× g for 10 min and the resulting pellets were re-homogenized and centrifuged. Supernatants resulted from both runs were combined and centrifuged for 20 min at 48000× g. The pellets obtained were resuspended in a teflon-glass homogenizer in 50 mM Tris-HCl with 5 mM EDTA (pH 7.7 at 4° C.), centrifuged, and resuspended in 50 mM Tris-HCl with 25 mM NaCl, pH 7.7 at room temp. To remove endogenous ligands, the homogenate was incubated 30 min at room temp before it was centrifuged for 20 min at 48000× g. The pellets were then washed with 50 mM Tris-HCl buffer, (pH 7.4 at 4° C.) and loaded on top of 5 mM HEPES/0.85 M sucrose (pH 7.4 at 4° C.). Pellets obtained after centrifugation at 48000× g for 20 min were saved. The fatty connective tissue on the top layer was discarded. The partially purified VLM membrane pellets were then washed twice with 50 mM Tris-HCl, pH 7.7 at 4° C., flash frozen in dry ice/acetone slush, and stored at -100° C. until use. Receptor binding experiments were performed within days after the membrane preparation.
I1 imidazoline receptor binding affinity was determined from radioligand binding of ^3 H-clonidine (NEN, Boston, Mass.) to bovine VLM membranes. Specific activity of ^3 H-clonidine was 43 Ci/mmol. Kd of ^3 H-clonidine binding to the I1 imidazoline receptor was determined by saturation experiments and Ki of other ligands studied were determined by competition experiments. The radioligand binding assay was performed in Teflon 96-wells with the Biomek-1000 robotics (Beckman Instruments, Fullerton, Calif.). Each well contained […] ^3 H-Clonidine and 0.3 to 0.5 mg of bovine VLM protein in 5 mM HEPES buffer containing 0.5 mM EGTA and 0.5 mM MgCl2, pH 7.4 (0.1 mM ascorbic acid was added just before the protein). After 50 min of incubation at 25° C., the reaction was terminated by rapid filtration over Whatman GF/B filters treated with 0.1% polyethyleneimine and washed with 12 ml ice cold 50 mM Tris-HCl, pH 7.4 at 4° C. in a Brandel Harvester (Brandel, Gaithersburg, Md.). Both `hot` and `cold` saturation experiments were performed. In `hot` saturation experiments, studies were performed with ^3 H-clonidine ranging from 0.1 to 50 nM. In `cold` saturation experiments, studies were performed with 2 nM ^3 H-clonidine with 20 different concentrations of the unlabeled clonidine, ranging from 0.1 nM to 1 uM unlabeled clonidine. Non specific binding was defined by parallel incubations containing 10^-5 M phentolamine or naphazoline. Imidazoline binding was determined by parallel incubations in which the alpha-adrenergic sites were masked with 10^-5 M norepinephrine. During competition experiments, ligands of 20 concentrations ranged from 10^-11 to 10^-4 were used. Radioactivity was counted in a Beckman LS-3801 scintillation counter. Data were captured and analyzed with Accufit saturation and competition softwares modeled both for one-site and two-site fits (Beckman Instruments, Fullerton, Calif.) using an IBM compatible computer. All experiments were repeated at least twice.

I2A = experiment: Receptor binding, I2A
human α2C = target: T1, human α2C (Homo sapiens, UniProt P18825); experiment: Receptor binding, [3H]rauwolscine, CHO-C4 cells expressing human α2C; details: CHO-C4, 22° C., 30 min
T1 construct: expressed in transfected cells; host or cells: CHO cells (CHO-C4)
T1 sequence (P18825 1-462): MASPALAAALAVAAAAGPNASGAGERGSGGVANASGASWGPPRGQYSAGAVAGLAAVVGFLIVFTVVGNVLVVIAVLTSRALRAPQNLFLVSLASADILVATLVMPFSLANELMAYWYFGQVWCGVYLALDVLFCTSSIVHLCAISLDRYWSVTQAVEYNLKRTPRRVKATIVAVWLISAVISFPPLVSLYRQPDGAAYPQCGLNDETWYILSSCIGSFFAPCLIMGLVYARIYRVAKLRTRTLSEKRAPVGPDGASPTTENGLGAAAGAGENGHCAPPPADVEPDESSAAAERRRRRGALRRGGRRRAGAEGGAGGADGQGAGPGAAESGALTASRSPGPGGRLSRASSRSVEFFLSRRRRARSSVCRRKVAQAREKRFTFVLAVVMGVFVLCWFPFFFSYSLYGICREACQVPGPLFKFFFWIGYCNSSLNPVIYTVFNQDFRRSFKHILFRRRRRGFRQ
Protocol: Cell preparation: Chinese hamster ovary (CHO) cells expressing the human α2A and human α2C (CHO-C10 and CHO-C4 respectively) receptors and CHO cells (CHO-RNG) expressing the rat α2B, adrenoceptor were grown to near confluence in Dulbecco's modified Eagle's medium supplemented with 10% fetal bovine serum using standard cell culture methods. Cells were harvested by scraping and placed into cold buffer of the following composition: 50 mM Tris-HCl, 5 mM EDTA, pH 7.4). […] The pellet fraction was washed (resuspended in Tris-HCl, pH 8 buffer and centrifuged for 15-20 minutes at 49,000× g) 2 times and stored at -100° until binding assay.
as §1, §2, §3

α2 receptors = details: cited from earlier work
α2A = details: cited from earlier work
[1] = system: imidazoline receptors and α2 adrenoceptors; details: cited from earlier work
[2] = cited from earlier work
[3] = rabbit, in vivo
α1 receptors = details: prazosin vs yohimbine; cited from earlier work

## Cc1cc(C(C)(C)C)c(O)c(C)c1CC1=NCCN1 [Example 23]
α1
  Ki: 0.199 µM
I2B
  Ki: 2.69 µM
I1 imidazoline receptor
  Ki: 7.42 µM
I2A
  Ki: 12.9 µM

## Brc1c(NC2=NCCN2)ccc2nccnc12 [Example 5]
α1
  Ki: 1.85 µM
I2B
  Ki: 0.614 µM
I1 imidazoline receptor
  Ki: 0.017 µM
I2A
  Ki: 7.19 µM

## Clc1cccc(Cl)c1NC1=NCCN1 [Example 2]
I2B
  Ki: 12.5 µM
I1 imidazoline receptor
  Ki: 0.0089 µM
I2A
  Ki: 10 µM

## COc1ccc(Nc2ncc[nH]2)c(C)c1 [Example 19]
α1
  Ki: 7.61 µM
I2B
  Ki: 0.179 µM
I1 imidazoline receptor
  Ki: 0.013 µM
I2A
  Ki: 6.18 µM

## Cc1c(Nc2ncc[nH]2)ccc2nccnc12 [Example 24]
α1
  Ki: 30.6 µM
Human α2C
  Ki: 0.212 µM
I2B
  Ki: 0.036 µM
I1 imidazoline receptor
  Ki: 0.227 µM
I2A
  Ki: 6.37 µM

## Cc1c(Nc2ncc[nH]2)ccc2c1NCCO2 [Example 17]
α1
  Ki: 14.8 µM
I2B
  Ki: 9.28 µM
I1 imidazoline receptor
  Ki: 5.3 µM
I2A
  Ki: 27 µM

## COC(=O)[C@@H]1[C@H]2C[C@H]3c4[nH]c5ccccc5c4CCN3C[C@@H]2CC[C@@H]1O [yohimbine]
α2 receptors; yohimbine vs prazosin
  relative potency at α2 receptors (in words): more potent than prazosin

## Cc1cccc([C@H](C)c2cnc[nH]2)c1C [dexmedetomidine]
α2A
  α2A selectivity (in words): a2A selective

## Cc1c(Nc2ncc[nH]2)ccc2c1OCCO2 [Example 21]
α1
  Ki: 2.15 µM
I2B
  Ki: 0.686 µM
I1 imidazoline receptor
  Ki: 0.444 µM
I2A
  Ki: 7.71 µM

## C1COC(NC(C2CC2)C2CC2)=N1 [rilmenidine]
[1]
  selectivity for imidazoline receptors (in words): more selective for imidazoline receptors than for α2 -adrenoceptors
[2]; equihypotensive doses
  side effects compared to clonidine: less bradycardia and reduction in cardiac output, less sedation, and little or no antinociceptive action compared to clonidine

## Clc1cccc(Cl)c1N=C1NCCN1 [clonidine]
[3]
  IOP of the untreated eye (systemic effect): the IOP of the untreated eye is lowered to the same extent as the treated eye
α2 receptors
  α2 adrenergic mechanism of action (in words): centrally acting α2 adrenergic partial agonist
[1]
  binding to α2 and imidazoline receptors (in words): binds to both α2 and imidazoline receptors
[2]; in vivo
  cardiovascular effect (in words): hypotensive cardiovascular effects

## COc1cc2nc(N3CCN(C(=O)c4ccco4)CC3)nc(N)c2cc1OC [prazosin]
α1 receptors
  relative potency at α1 receptors (in words): more potent that yohimbine

## COc1nc(C)nc(Cl)c1NC1=NCCN1 [Example 6]
α1
  Ki: 38.6 µM
I2B
  Ki: 100 µM
I1 imidazoline receptor
  Ki: 0.056 µM
I2A
  Ki: 100 µM

Source: patent US6087361A, “Aryl-imidazolines and aryl-imidazoles useful as α-2 adrenergic agonists without cardiovascular side effects” (Allergan Sales, Inc., priority 1997, dated 2000)
